Experimental findings from ChEMBL document CHEMBL1201862, “PubChem BioAssay data set” (2004) are described below.

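Exposure lasted 48 hours, with cells grown in 96-well plates and compounds tested at five concentrations. GI50 marks 50% less growth.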 Calls of active or inactive are those of the source. Rule as the data show it: active = GI50 up to about 1.1 µM and inactive = higher. Bounds are passed on as bounds.

Assay in all cases: NCI tumour cell line growth inhibition, 48 h
Test [1] deals with ACHN.
Test [2] has as its system BT-549.
Test [3] has as its system DMS-114.
Test [4] has as its system EKVX.
Test [5] has as its system HCC 2998.
Test [6] concerns HOP-62.
Test [7] relates to HOP-92.
Test [8] relates to LOX IMVI.
For test [9], the system named is M14.
Test [10] deals with MCF7.
The test system of test [11] is Malme-3M.
Test [12] concerns OVCAR-4.
Test [13] deals with SK-MEL-28.
In test [14] the test system is SK-MEL-2.
Test [15] relates to SK-MEL-5.
Test [16] has as its system SNB-19.
Test [17] has as its system SW-620.
Test [18] concerns U-251.
For test [19], the system named is UACC-62.
Test [20] concerns UO-31.

In the case of `O=C(/C=C/c1ccccc1)CCN1CCOCC1`, the GI50 was 15.2 µM (inactive) in [1]; 12.6 µM (inactive) in test [2]; 9.25 µM (inactive) in test [3]; 18.5 µM (inactive) in [4]; 20 µM (inactive) in [5]; 27.3 µM (inactive) in test [6]. Besides, the GI50 in test [7] was 16.8 µM (inactive); in [8] it was 10.9 µM (inactive); in test [9], 14.8 µM (inactive); in test [10], 4.99 µM (inactive); in [11] it was 18.6 µM (inactive); in test [12] it was 20.9 µM (inactive). Further, the GI50 in test [13] is 11.4 µM (inactive); in test [14] it was 21.1 µM (inactive); in test [15] it was 17.5 µM (inactive); in test [16], 23.8 µM (inactive); in test [17] it was 5.48 µM (inactive); in test [18], 12.9 µM (inactive). Besides, the figures for the GI50 in test [19] and in test [20] were 16 µM (inactive) and 16.6 µM (inactive), respectively.
`C/C(=N\NC(=[Se])N(C)C)c1ccccn1`: the GI50 is < 0.01 µM (active) in test [1]; 7.31 µM (inactive) in test [2]; < 0.01 µM (active) in test [3]; 0.0703 µM (active) in test [4]; 0.459 µM (active) in test [5]; < 0.01 µM (active) in test [6]. The GI50 in test [7] was 1.09 µM (active); in test [8], < 0.01 µM (active); in test [9] it was 0.0158 µM (active); in test [10], < 0.01 µM (active); in test [11] it was 0.47 µM (active); in [12] it was 0.103 µM (active). Further, the GI50 is 1.91 µM (inactive) in [13]; 0.585 µM (active) in [14]; 0.0263 µM (active) in test [15]; 1.37 µM (inactive) in test [16]; < 0.01 µM (active) in test [17]; < 0.01 µM (active) in [18]. Further, the GI50 was < 0.01 µM (active) in test [19] and 0.457 µM (active) in test [20].
For the compound `CC(=O)[C@@]1(O)CC[C@H]2[C@@H]3C[C@H](C)C4=CC(=O)C=C[C@]4(C)[C@@]3(F)[C@@H](O)C[C@@]21C` [FLUOROMETHOLONE], the GI50 in [1] was > 100 µM (inactive); in test [2], > 100 µM (inactive); in test [3], > 100 µM (inactive); in test [4], > 67.5 µM (inactive); in test [5], > 100 µM (inactive); in [6], > 100 µM (inactive). The GI50 in [7], in test [8], in test [9], in test [10], in test [11] and in test [12] was > 100 µM (inactive) in each case. For the same compound, the GI50 in test [13], in test [14], in test [15], in [16], in test [17] and in [18] was > 100 µM (inactive) each time. In addition, the GI50 in test [19] and in [20] was > 100 µM (inactive) throughout.
